Source: paper PMC12631982, “Expected and Unexpected “Guests” at the Active Site of Human Orotidine 5′-Monophosphate Decarboxylase” (Biochemistry, 2025)
“And” between values parts separate entries of the source, which are not always exact repeats. Identical values can stand only once. “Also recorded” adds a separate entry of the source. Like-named read-outs stand apart in the source and are kept apart here.

Legend:
human OMPDC [1] = molecular target: T1, human OMPDC (Homo sapiens, UniProt P11172); assay: Thermodynamic ITC ligand binding to human OMPDC wild-type; conditions: for ΔH (first binding phase, K D1) / ΔH (second binding phase, K D2): Sedphat analysis; for binding detected by thermodynamic ITC: 25 °C
T1 construct: Overexpression of human OMPDC in Escherichia coli; made in house; host or cells: Escherichia coli
Description: (§1) Steady-state kinetics of OMPDC conversion and thermodynamics of ligand binding were conducted using a PEAK-ITC instrument (Malvern Panalytical) in 20 mM HEPES/NaOH, pH 7.4, at 25 °C. The substrate OMP trisodium salt and the ligands UMP, GMP, XMP, and TMP were purchased from Sigma-Aldrich (purity >99%).
Isothermal titration calorimetry (ITC) is used to determine the dissociation constant (K D) of a protein–ligand interaction by measuring the heat released or absorbed during binding. In practice, the ligand is sequentially titrated into a solution containing the protein in the reaction cell. As the binding sites become saturated over time, no additional heat changes are detected. The resulting thermogram is then converted into a binding isotherm, which can be used to calculate all relevant thermodynamic parameters. Thereby, the (K D) follows the general reaction, where the enzyme (E), by addition of a ligand (L), forms an enzyme-ligand complex (EL) E+L↔KaEL
The following parameters for the binding experiments were used:
OMPDC with UMP: 195 μM OMPDC, 2.08 mM UMP, buffer (HEPES 0.02 M, pH 7.4), reference power ITC 8 μcal/s, stirring speed 750 rpm, cell temperature 25 °C, one injection of 0.4 μL and 18 injections of 2 μL UMP, 120 s spacing.*
OMPDC with 5-methyl OMP: 195 μM OMPDC, 4.61 mM 5-methyl OMP, buffer (HEPES 0.02 M, pH 7.4), reference power ITC 10 μcal/s, stirring speed 750 rpm, cell temperature 25 °C, 1 injection of 0.4 μL and 18 injections of 2 μL 5-methyl OMP, 120 s spacing.*
OMPDC with dTMP: 186 μM OMPDC, 5 mM dTMP, buffer (HEPES 0.02 M, pH 7.4), reference power ITC 8 μcal/s, stirring speed 750 rpm, cell temperature 25 °C, 1 injection of 0.4 μL and 18 injections of 2 μL dTMP, 120 s spacing.
OMPDC with XMP: 194 μM OMPDC, 1.5 mM XMP, buffer (HEPES 0.02 M, pH 7.4), reference power ITC 8 μcal/s, stirring speed 750 rpm, cell temperature 25 °C, 1 injection of 0.4 μL and 18 injections of 2 μL XMP 120 s spacing.*
OMPDC with YMP: 200 μM OMPDC, 2.03 mM YMP, buffer (HEPES 0.02 M, pH 7.4), reference power ITC 8 μcal/s, stirring speed 750 rpm, cell temperature 25 °C, 1 injection of 0.4 μL and 18 injections of 2 μL YMP, 120 s spacing.
OMPDC with CMP: 200 μM OMPDC, 1.80 mM CMP, buffer (HEPES 0.02 M, pH 7.4), reference power ITC 10 μcal/s, stirring speed 750 rpm, cell temperature 25 °C, 1 injection of 0.4 μL and 18 injections of 2 μL CMP, 120 s spacing.*
OMPDC with 2′-deoxy UMP: 211 μM OMPDC, 9.04 mM 2′-deoxy UMP, buffer (HEPES 0.02 M, pH 7.4), reference power ITC 10 μcal/s, stirring speed 750 rpm, cell temperature 25 °C, 1 injection of 0.4 μL and 18 injections of 2 μL 2′-deoxy UMP, 120 s spacing.
OMPDC with GMP: 184 μM OMPDC, 10 mM GMP, buffer (HEPES 0.02 M, pH 7.4), reference power ITC 8 μcal/s, stirring speed 750 rpm, cell temperature 25 °C, 1 injection of 0.4 μL and 18 injections of 2 μL GMP, 120 s spacing.
(§2) The raw files were analyzed using the software provided by the instrument manufacturer. Marked data sets (*) were integrated using NitPic version 1.2.7 and fitted with Sedphat version 14.0. Final graphs were created with OriginPro 2020.

OMPDC Thr321Asn [2] = molecular target: T2, OMPDC Thr321Asn (Homo sapiens, UniProt P11172, T321N); assay: Thermodynamic ITC ligand binding to OMPDC variant Thr321Asn
T2 construct: OMPDC Thr321Asn was generated via site-directed mutagenesis; made in house
Description: as §1
OMPDC T321N′ with dTMP: 211 μM OMPDC T321N′, 2 mM dTMP, buffer (HEPES 0.02 M, pH 7.4), reference power ITC 10 μcal/s, stirring speed 750 rpm, cell temperature 25 °C, 1 injection of 0.4 μL and 18 injections of 2 μL dTMP, 120 s spacing.
as §2

human OMPDC [3] = molecular target: T1, human OMPDC; assay: ITC-based steady-state kinetics / activity assay of OMPDC; type: biochemical; conditions: wild-type
Description: as §1
(§3) For steady-state kinetic analysis, 20 μM OMPDC and 1 mM OMP were used at a cell temperature of 25 °C. The reference power was set to 8 μcal/s, the stirring power to 750 rpm, and two injections of 10 μL each were performed. For competitive inhibition studies, the substrate concentration remained the same while the ligand concentration was varied. The experiments are summarized below:
OMPDC with OMP and 5-methyl OMP: 70/100 μM OMPDC, 1 mM OMP, 5-methyl OMP (1 mM), buffer (HEPES 0.02 M, pH 7.4), reference power ITC 8 μcal/s, stirring speed 750 rpm, cell temperature 25 °C, 2 injections of 10 μL each.
OMPDC with OMP: 20 μM OMPDC, 1 mM OMP, buffer (HEPES 0.02 M, pH 7.4), reference power ITC 8 μcal/s, stirring speed 750 rpm, cell temperature 25 °C, 2 injections of 10 μL each.
The data sets were evaluated via Microsoft Excel, and the decarboxylation rates were fitted in OriginPro 2020 according to the Hill equation.

OMPDC Thr321Asn [4] = molecular target: T2, OMPDC Thr321Asn; assay: Kinetic ITC with OMPDC variant Thr321Asn; type: biochemical
Description: as §3, with “varied.” for “varied. The experiments are summarized below:”

human OMPDC [5] = molecular target: T1, human OMPDC; assay: X-ray crystallography, soaking / cocrystallization of ligands; conditions: wild-type, in crystallo
Description: OMPDC crystals were grown for at least 3 days at 20 °C using the hanging drop diffusion method with Crystalgen SuperClear Plates (Jena Bioscience) as previously described. , The crystals were gradually transferred to increasing concentrations of cryo-solution (100 mM Tris/HCl pH 8.0, 2 M (NH4)2SO4, 10 mM glutathione pH 8.0, 0.25–1 M L-proline). After the crystals were adjusted to 1 M L-proline cryo-solution, various ligands were used for soaking experiments. […] The crystals were flash-cooled in liquid nitrogen and stored at these temperatures until the diffraction experiments were conducted.
OMPDC was also cocrystallized with XMP, UMP, and GMP. For this, a final protein concentration of 4.5 mg/mL and 25 mM ligand were used in 20 mM HEPES/NaOH, pH 7.4. The solution was mixed in a 1 + 1 ratio with the reservoir solution. Plates were stored at 20 °C, and crystals grew overnight. After 1 week, crystals were transferred to cryo-solution supplemented with 25 mM XMP/UMP/GMP. The cocrystallized crystals were flash-cooled in liquid nitrogen and stored until use.
The structures of OMPDC with the different ligands were determined by processing the diffraction data with the XDS program suite. […]

[6] = ITC at 25 °C, wild-type, first of two dissociation constants (Sedphat analysis), read-out: K D1
[7] = ITC at 25 °C, wild-type, second of two dissociation constants (Sedphat analysis), read-out: K D2
[8] = ITC at 25 °C, 20 mM HEPES pH 7.4, wild-type, single dissociation constant, read-out: K D

With `Nc1ccn([C@@H]2O[C@H](COP(=O)(O)O)[C@@H](O)[C@H]2O)c(=O)n1` [CMP, cytidine-5′-monophosphate] the “ΔH (first binding phase, K D1)” value (human OMPDC [1]; ITC at 25 °C, wild-type) was “–2.30 ± 0.08 kcal/mol”, the “ΔH (second binding phase, K D2)” value (human OMPDC [1]; ITC at 25 °C, wild-type) was “–7.08 ± 0.56 kcal/mol” and the Kd (human OMPDC [1]; [6]) was 4730 ± 1090 nM. The Kd (human OMPDC [1]; [7]) was 8330 ± 1060 nM.

`O=c1ccn([C@H]2C[C@H](O)[C@@H](COP(=O)(O)O)O2)c(=O)[nH]1` [2′-deoxy UMP, 2′-deoxy uridine 5′-monophosphate] was tested, and the “binding detected by thermodynamic ITC” value (human OMPDC [1]; wild-type) was “no binding” and the “binding detected by thermodynamic ITC” value (human OMPDC [1]; wild-type, listed as deoxy UMP) was “No binding could be detected”.

`O=c1ccn([C@@H]2O[C@H](COP(=O)(O)O)[C@@H](O)[C@H]2O)c(=O)[nH]1` [UMP, uridine 5′-monophosphate] was tested, and the “n (stoichiometry)” value (human OMPDC [1]; ITC at 25 °C, wild-type) was 0.98 ± 0.01, the “ΔH (first binding phase, K D1)” value (human OMPDC [1]; ITC at 25 °C, wild-type) was “–1.03 ± 0.06 kcal/mol” and the “ΔH (second binding phase, K D2)” value (human OMPDC [1]; ITC at 25 °C, wild-type) was “–2.1 ± 0.1 kcal/mol”. For the same compound, the Kd (human OMPDC [1]; [6]) was 2600 ± 1200 nM, the Kd (human OMPDC [1]; [7]) was 6700 ± 800 nM and the Kd (human OMPDC [1]; ITC, wild-type, second of two dissociation constants, read-out: Dissociation constant KD2) was 6730 nM.

`Cc1cn([C@H]2C[C@H](O)[C@@H](COP(=O)(O)O)O2)c(=O)[nH]c1=O` [dTMP, thymidine-5′-monophosphate] was tested, and the Kd (human OMPDC [1]; [8]) was 119000 nM, the “n (stoichiometry)” value (human OMPDC [1]; ITC at 25 °C, wild-type) was 0.64 ± 0.03 and the ΔG (human OMPDC [1]; ITC at 25 °C, wild-type) was “–5.37 ± 0.09 kcal/mol”. For the same compound, the ΔH (human OMPDC [1]; ITC at 25 °C, wild-type) was “–4.74 ± 0.29 kcal/mol”, the “–TΔS” value (human OMPDC [1]; ITC at 25 °C, wild-type) was “–0.63 ± 0.88 kcal/mol” and the Kd (human OMPDC [1]; ITC at 25 °C, wild-type, single dissociation constant, read-out: Dissociation constant (KD)) was 118000 nM. The Kd (OMPDC Thr321Asn [2]; ITC) was 431 ± 44 nM, the Kd (OMPDC Thr321Asn [2]; ITC at 25 °C) was 430 ± 40 nM and the “n (stoichiometry)” value (OMPDC Thr321Asn [2]; ITC at 25 °C) was 0.64 ± 0.02. The ΔG (OMPDC Thr321Asn [2]; ITC at 25 °C) was “–8.69 ± 0.08 kcal/mol”, the ΔH (OMPDC Thr321Asn [2]; ITC at 25 °C) was “–14.3 ± 0.1 kcal/mol” and the “–TΔS” value (OMPDC Thr321Asn [2]; ITC at 25 °C) was 5.60 ± 0.06 kcal/mol.

With `Cc1c(C(=O)O)n(C2OC(COP(=O)(O)O)C(O)C2O)c(=O)[nH]c1=O` (centres unmarked) [5-MeOMP, 5-methyl OMP] the Kd (human OMPDC [1]; [8]) was 404 nM and 400 nM, the “n (stoichiometry)” value (human OMPDC [1]; ITC at 25 °C, wild-type) was 1.54 ± 0.01 and the ΔG (human OMPDC [1]; ITC at 25 °C, wild-type) was “–8.78 ± 0.19 kcal/mol”. For the same compound, the ΔH (human OMPDC [1]; ITC at 25 °C, wild-type) was “–1.20 ± 0.03 kcal/mol”, the “–TΔS” value (human OMPDC [1]; ITC at 25 °C, wild-type) was “–7.58 ± 0.26 kcal/mol” and the enzymatic turnover (human OMPDC [3]) was “unable to detect enzymatic turnover”.

In the case of `O=C(O)c1cc(=O)[nH]c(=O)n1[C@H]1C[C@H](O)[C@@H](COP(=O)(O)O)O1` [2′-deoxy OMP], the enzymatic turnover (human OMPDC [3]) is reported as “no binding or turnover was detected”, the enzymatic activity (OMPDC Thr321Asn [4]) is reported as “too low to be reliably measured” and the “ligand bound in crystal structure” value (human OMPDC [5]) is reported as “does not bind”.

`Nc1nc2c(ncn2[C@@H]2O[C@H](COP(=O)(O)O)[C@@H](O)[C@H]2O)c(=O)[nH]1` [GMP, guanosine-5′-monophosphate] was tested, and the “binding detected by thermodynamic ITC” value (human OMPDC [1]; wild-type) was “No binding could be detected; also recorded: no measurable binding heat was detected; also recorded: did not bind at all” and the “ligand bound in crystal structure” value (human OMPDC [5]) was “no ligand was bound to the active site”.

`O=c1[nH]c(=O)c2ncn([C@@H]3O[C@H](COP(=O)(O)O)[C@@H](O)[C@H]3O)c2[nH]1` [XMP, xanthosine-5′-monophosphate] was tested, and the “ΔH (first binding phase, K D1)” value (human OMPDC [1]; ITC at 25 °C, wild-type) was “–1.86 ± 0.10 kcal/mol”, the “ΔH (second binding phase, K D2)” value (human OMPDC [1]; ITC at 25 °C, wild-type) was “–5.57 ± 0.07 kcal/mol” and the Kd (human OMPDC [1]; [6]) was 210 ± 30 nM. For the same compound, the Kd (human OMPDC [1]; [7]) was 180 ± 20 nM, the Kd (human OMPDC [1]; ITC, wild-type, first of two dissociation constants, read-out: Dissociation constant KD1) was 213 nM and the Kd (human OMPDC [1]; ITC, wild-type, second of two dissociation constants, read-out: K D2) was 182 ± 18 nM.
